Laboratory results from publication PMC8844856, “Structural basis of cyclic oligoadenylate binding to the transcription factor Csa3 outlines cross talk between type III and type I CRISPR systems” (The Journal of Biological Chemistry, 2022).
Entries after “also recorded” stand apart in the source; their conditions may differ.

Legend:
[1] = target: T1, His6-Csa3Sso (WT) (Saccharolobus solfataricus, UniProt Q97Y88); assay: Microscale thermophoresis (MST) binding of cOA ligands to wildtype Csa3Sso
T1 construct: made in house; host or cells: E. coli BL21(DE3)-pLysS
T1 sequence (Q97Y88 1-237): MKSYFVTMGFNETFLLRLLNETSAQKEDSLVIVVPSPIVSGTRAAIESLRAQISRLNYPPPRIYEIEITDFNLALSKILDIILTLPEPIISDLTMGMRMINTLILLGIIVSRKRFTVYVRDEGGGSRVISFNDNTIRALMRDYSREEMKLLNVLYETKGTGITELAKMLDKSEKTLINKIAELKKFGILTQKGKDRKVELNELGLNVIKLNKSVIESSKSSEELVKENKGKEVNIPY
Protocol: (§1) The ligand-binding specificity of Csa3Sso (WT) and the role of Csa3Sso residues in ligand binding were determined by microscale Thermophoresis (MST). Wildtype or mutant His6-Csa3Sso (200 nM) was fluorescently labeled in 2× binding buffer (10 mM Na/K phosphate, pH 5.8, 10 mM MgCl2, 25 mM NaCl, and 0.05% Tween 20) using 100 nM RED-Tris NTA His-Tag labeling dye (Nanotemper Technologies, Inc) and incubated in the dark at room temperature for 30 min. Two millimolar stocks of synthetic ligands including cA3, cA4, and cA6 (Biolog Life Science Institute) or linear ribonucleotide 5′-rCrArArArA-3′ (Bio-Synthesis Inc) were serially diluted in a 1:1 ratio with nuclease-free water. The labeled proteins were then mixed with ligands in a 1:1 ratio. Only cA4 was used in the MST experiments with the Csa3Sso mutants (2 mM stocks of cA4 were used for F10A, F14A, G96A, and R98A mutants, and 20 μM stocks were used for E122A and E122Q mutants). The mixtures of proteins and ligands were incubated in the dark at room temperature for 30 min. The precipitated material was removed by centrifugation at 6000 rpm for 5 min. The supernatants were then loaded into Monolith NT.115 Series Premium capillaries in triplicate, and the thermophoresis was detected with 40% excitation power and 40% IR-laser power for an on-time of 20 s at 25 °C.
(§2) The binding affinities of oligonucleotides and PCas4a to Csa3Sso (WT and mutants) were analyzed according to the law of mass action in a standard fitting mode of MO.Affinity analysis software (version 2.3).

[2] = system: Csa3bSis binding to the Pcsa1 promoter; set-up: method as in PMID 32983033; conditions: in the presence of the cA4 analog in vitro; cited from earlier work
[3] = target: Csa3bSis; set-up: method as in PMID 32983033; conditions: surface plasmon resonance; cited from earlier work
[4] = target: T2, Csa3Sso F10A mutant (Saccharolobus solfataricus, UniProt Q97Y88, F10A); assay: MST binding of cA4 to Csa3Sso F10A mutant; conditions: Fig. 4E
T2 construct: made in house; host or cells: E. coli BL21(DE3)-pLysS (pET21b)
Protocol: as §1, with “The mixtures of proteins and ligands were incubated in the dark at room temperature for 30 min. The precipitated material was removed by centrifugation at 6000 rpm for 5 min.” left out
as §2

[5] = target: T3, Csa3Sso R98A mutant (Saccharolobus solfataricus, UniProt Q97Y88, R98A); assay: MST binding of cA4 to Csa3Sso R98A mutant; conditions: Fig. 4E
T3 construct: made in house; host or cells: E. coli BL21(DE3)-pLysS (pBB75)
Protocol: as §1, with “The mixtures of proteins and ligands were incubated in the dark at room temperature for 30 min. The precipitated material was removed by centrifugation at 6000 rpm for 5 min.” left out
as §2

[6] = target: T4, Csa3Sso G96A mutant (Saccharolobus solfataricus, UniProt Q97Y88, G96A); assay: MST binding of cA4 to Csa3Sso G96A mutant; conditions: Fig. 4E
T4 construct: made in house; host or cells: E. coli BL21(DE3)-pLysS (pET21b)
Protocol: as §1, with “The mixtures of proteins and ligands were incubated in the dark at room temperature for 30 min. The precipitated material was removed by centrifugation at 6000 rpm for 5 min.” left out
as §2

[7] = target: T5, Csa3Sso-R98A mutant with PCas4a DNA (Saccharolobus solfataricus, UniProt Q97Y88, R98A); assay: Visual precipitation of Csa3Sso-R98A with PCas4a DNA in tubes; conditions: 50 μM Csa3Sso R98A, 10 μM PCas4a, 500 μM cA4, 30 min, 20 °C
T5 construct: made in house; host or cells: E. coli BL21(DE3)-pLysS (pBB75)
Excerpt: (§3) […]. The DNA fragment docked onto protomer A in the cA4-bound Csa3Sso dimer sterically clashed with a region in the CARF domain from protomer B in this dimer (encircled by a red dotted circle). […] To obtain these models, wHTH domains of B. subtilis OhrR (PDB code: 1Z9C ([71]), RMSD: 1.7 Å) were individually superimposed onto wHTH domains of the Csa3Sso dimer and OhrR was omitted from the view for clarity. A single and straight model of B-form DNA with two copies of the palindromes could not be modeled with the apo Csa3Sso dimer owing to a slight misorientation (not shown) between Csa3Sso wHTH domains (possibly requiring a bend in the DNA). B, precipitation of Csa3Sso in the presence of PCas4a DNA and its solubilization by cA4 binding to the Csa3Sso CARF domain. […]. Cy5-labeled PCas4a, 50 nM, was added to different Csa3Sso concentrations ranging from 500 nM to 25 μM in the presence or absence of cA4 added in a 50:1 ratio of cA4:Csa3Sso. […].

[8] = target: T6, Csa3Sso-E122Q (Saccharolobus solfataricus, UniProt Q97Y88, E122Q); assay: Ring nuclease activity assay (C18 HPLC), Csa3Sso-E122Q; type: biochemical; conditions: 5 μM E122Q mutant, 500 μM cA4, 60 °C, 3 h, Fig. S5C
T6 construct: made in house; host or cells: E. coli BL21(DE3)-pLysS (pET21b)
Protocol: (§4) […]. The reaction mixtures were deproteinized by ultrafiltration with an Amicon Ultra 3 kDa cutoff centrifugal filter (Millipore). […]. For both conditions, the products and controls were collected and analyzed with High Performance Liquid Chromatography system (UltiMate 3000, Thermo Scientific) equipped with the C18 column (4.6 × 100 mm, […], Thermo Scientific) and C18 column, (15 cm × 4.6 mm, […], Supelco), for the first and second conditions, respectively.

[9] = target: T7, Csa3Sso (Saccharolobus solfataricus, UniProt Q97Y88); assay: Ring nuclease activity assay (C18 HPLC), wildtype Csa3Sso; type: biochemical; conditions: 3 h
T7 construct: made in house; host or cells: E. coli BL21(DE3)-pLysS
T7 sequence (Q97Y88 1-237): T1 sequence (Q97Y88 1-237)
Protocol: as §4

[10] = target: Csa3Sso–PCas4a complex (Saccharolobus solfataricus, UniProt Q97Y88)
Protocol: Top and bottom DNA oligonucleotide strands used for EMSA were purchased from Sigma-Aldrich (Table S2). The oligonucleotide strands were annealed by mixing them in 1:1 molar ratio followed by heating at 98 °C for the unlabeled, or 70 °C for the Cy5-labeled, DNA fragments for 15 min. Slow cooling to room temperature was used to anneal the fragments. Unlabeled probe-containing samples used for Fig. S8C were electrophoresed using a 2% (w/v) agarose Tris-Borate-EDTA (TBE) gel at 100 V for 30 min at room temperature. Probes were stained with ethidium bromide and visualized using Gel Doc XR+ Molecular Imager (Bio-Rad). […] The Cy5-labeled probes were electrophoresed in a 5% acrylamide TBE gel at 100 V for 1 h at 4 °C. DNA bands were visualized using FluorChem R gel imager (Protein Simple, Inc).

[11] = target: T8, Csa3Sso–PCas4a complex precipitates (Saccharolobus solfataricus, UniProt Q97Y88); assay: Visual precipitation of Csa3Sso–PCas4a complexes in tubes, wildtype; conditions: 50 μM Csa3Sso WT, 10 μM PCas4a, 500 μM cA4, 30 min, 20 °C
T8 construct: made in house; host or cells: E. coli BL21(DE3)-pLysS
T8 sequence (Q97Y88 1-237): T1 sequence (Q97Y88 1-237)
Excerpt: as §3

[12] = target: T9, Csa3Sso-E122A (Saccharolobus solfataricus, UniProt Q97Y88, E122A); assay: Ring nuclease activity assay (C18 HPLC), Csa3Sso-E122A; type: biochemical; conditions: 5 μM E122A mutant, 500 μM cA4, 60 °C, 3 h, Fig. S5C
T9 construct: made in house; host or cells: E. coli BL21(DE3)-pLysS (pET21b)
Protocol: as §4

[13] = target: Treponema succinifaciens Card1; set-up: method as in PMID 33461211; conditions: cited from earlier work
[14] = target: T10, Csa3Sso F14A mutant (Saccharolobus solfataricus, UniProt Q97Y88, F14A); assay: MST binding of cA4 to Csa3Sso F14A mutant; conditions: Fig. 4E
T10 construct: made in house; host or cells: E. coli BL21(DE3)-pLysS (pET21b)
Protocol: as §1, with “The mixtures of proteins and ligands were incubated in the dark at room temperature for 30 min. The precipitated material was removed by centrifugation at 6000 rpm for 5 min.” left out
as §2

[15] = target: T1, His6-Csa3Sso (WT); assay: MST binding of PCas4a promoter DNA to Csa3Sso with or without cOAs; conditions: 50-fold excess of cOA (25 μM)
Protocol: The MST experiment and data analysis for ligand-induced changes in Csa3Sso binding affinity with PCas4a was performed as mentioned above except for the following: 1 μM of His6-Csa3Sso (WT) was fluorescently labeled in 2× binding buffer with 40 nM RED-Tris NTA His-Tag labeling dye in the absence or presence of cA4 or cA6. The labeling mixtures were incubated in the dark at room temperature for 30 min. A 50 μM stock of PCas4a was serially diluted in 1:1 ratios with nuclease-free water. The labeled proteins ± ligands were then mixed with diluted PCas4a in a 1:1 ratio and incubated in the dark at room temperature for 30 min. The supernatants obtained after removal of precipitated material were then loaded into Monolith NT.115 Series Premium capillaries in triplicate, and the thermophoresis was detected with 100% excitation power and 60% IR-laser power for an on-time of 20 s at 25 °C.
as §2

T6 sequence (Q97Y88 whole entry E122Q): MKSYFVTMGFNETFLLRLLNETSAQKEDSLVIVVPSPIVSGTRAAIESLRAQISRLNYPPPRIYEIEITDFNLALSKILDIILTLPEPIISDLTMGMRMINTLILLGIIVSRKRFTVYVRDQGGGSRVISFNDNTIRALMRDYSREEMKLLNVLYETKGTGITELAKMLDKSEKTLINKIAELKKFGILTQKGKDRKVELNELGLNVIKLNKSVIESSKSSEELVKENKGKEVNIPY
T9 sequence (Q97Y88 whole entry E122A): as the sequence (Q97Y88 whole entry E122Q) above, with Q122A counted along it
T2 sequence (Q97Y88 whole entry F10A): as the sequence (Q97Y88 whole entry E122Q) above, with F10A, Q122E counted along it
T10 sequence (Q97Y88 whole entry F14A): as the sequence (Q97Y88 whole entry E122Q) above, with F14A, Q122E counted along it
T5 sequence (Q97Y88 whole entry R98A): as the sequence (Q97Y88 whole entry E122Q) above, with R98A, Q122E counted along it
T3 sequence (Q97Y88 whole entry R98A): as the sequence (Q97Y88 whole entry E122Q) above, with R98A, Q122E counted along it
T4 sequence (Q97Y88 whole entry G96A): as the sequence (Q97Y88 whole entry E122Q) above, with G96A, Q122E counted along it

Compound: 5′-rCrArArArA-3′ [5′CAAAA3′]
- specific binding to His6-Csa3Sso ([1]; MST): only cA4 exhibited a specific low micromolar binding
- fold increase in Csa3bSis binding affinity to the Pcsa1 promoter [2]: ~10 fold
- Kd [3]: 46.1 ± 8.14 µM

Compound: Nc1ncnc2c1ncn2[C@@H]1O[C@@H]2COP(=O)(O)O[C@H]3[C@@H](O)[C@H](n4cnc5c(N)ncnc54)O[C@@H]3COP(=O)(O)O[C@H]3[C@@H](O)[C@H](n4cnc5c(N)ncnc54)O[C@@H]3COP(=O)(O)O[C@H]3[C@@H](O)[C@H](n4cnc5c(N)ncnc54)O[C@@H]3COP(=O)(O)O[C@H]2[C@H]1O [cA4, cyclic tetra-adenylate]
- cA4 binding [4]: complete loss of cA4 binding
- cA4 binding [5]: completely lost cA4 binding
- cA4 binding [6]: completely lost the ability to bind cA4
- rescue of Csa3Sso-R98A from precipitating with DNA [7]: could not rescue
- cA4 hydrolysis (ring nuclease activity) [8]: did not exhibit any gain of ring nuclease activity; also recorded: no ring nuclease activity was observed
- fold stronger binding of His6-Csa3Sso to cA4 than Csa3bSis to the linear cA4 analog ([1]; MST KD vs SPR KD of ref 57): 8 fold
- cA4 hydrolysis (ring nuclease activity) ([9]; 5 μM Csa3Sso, 500 μM cA4, buffer G, 60 °C, Fig. 6): no sign of cA4 hydrolysis products; also recorded: No changes in the time-dependent stability of cA4
- cA4 hydrolysis (ring nuclease activity) ([9]; 50 µM Csa3Sso, 250 µM cA4, buffer G or binding buffer, 55 °C, Fig. S5 A, B): No changes
- effect on levels of soluble Csa3Sso–DNA complex (shifted band) [10]: no effect
- effect on formation of Csa3Sso–PCas4a complex precipitates [11]: prevented their formation
- cA4 hydrolysis (ring nuclease activity) [12]: did not exhibit any gain of ring nuclease activity; also recorded: no ring nuclease activity was observed
- Kd [13]: 0.015 µM
- cA4 binding [14]: complete loss of cA4 binding
- effect of excess cOA on PCas4a binding affinity of Csa3Sso [15]: no significant effect; also recorded: did not significantly change
